{"source": "paper PMC9551036", "about": "“A selective and orally bioavailable VHL-recruiting PROTAC achieves SMARCA2 degradation in vivo” (Nature Communications, 2022)", "key": {"[1]": {"target": "T1, SMARCA2/4 (Homo sapiens, UniProt P51531)", "T1 construct": "endogenous in cells; host or cells: HCT116, RKO", "T1 sequence (P51531 whole entry)": "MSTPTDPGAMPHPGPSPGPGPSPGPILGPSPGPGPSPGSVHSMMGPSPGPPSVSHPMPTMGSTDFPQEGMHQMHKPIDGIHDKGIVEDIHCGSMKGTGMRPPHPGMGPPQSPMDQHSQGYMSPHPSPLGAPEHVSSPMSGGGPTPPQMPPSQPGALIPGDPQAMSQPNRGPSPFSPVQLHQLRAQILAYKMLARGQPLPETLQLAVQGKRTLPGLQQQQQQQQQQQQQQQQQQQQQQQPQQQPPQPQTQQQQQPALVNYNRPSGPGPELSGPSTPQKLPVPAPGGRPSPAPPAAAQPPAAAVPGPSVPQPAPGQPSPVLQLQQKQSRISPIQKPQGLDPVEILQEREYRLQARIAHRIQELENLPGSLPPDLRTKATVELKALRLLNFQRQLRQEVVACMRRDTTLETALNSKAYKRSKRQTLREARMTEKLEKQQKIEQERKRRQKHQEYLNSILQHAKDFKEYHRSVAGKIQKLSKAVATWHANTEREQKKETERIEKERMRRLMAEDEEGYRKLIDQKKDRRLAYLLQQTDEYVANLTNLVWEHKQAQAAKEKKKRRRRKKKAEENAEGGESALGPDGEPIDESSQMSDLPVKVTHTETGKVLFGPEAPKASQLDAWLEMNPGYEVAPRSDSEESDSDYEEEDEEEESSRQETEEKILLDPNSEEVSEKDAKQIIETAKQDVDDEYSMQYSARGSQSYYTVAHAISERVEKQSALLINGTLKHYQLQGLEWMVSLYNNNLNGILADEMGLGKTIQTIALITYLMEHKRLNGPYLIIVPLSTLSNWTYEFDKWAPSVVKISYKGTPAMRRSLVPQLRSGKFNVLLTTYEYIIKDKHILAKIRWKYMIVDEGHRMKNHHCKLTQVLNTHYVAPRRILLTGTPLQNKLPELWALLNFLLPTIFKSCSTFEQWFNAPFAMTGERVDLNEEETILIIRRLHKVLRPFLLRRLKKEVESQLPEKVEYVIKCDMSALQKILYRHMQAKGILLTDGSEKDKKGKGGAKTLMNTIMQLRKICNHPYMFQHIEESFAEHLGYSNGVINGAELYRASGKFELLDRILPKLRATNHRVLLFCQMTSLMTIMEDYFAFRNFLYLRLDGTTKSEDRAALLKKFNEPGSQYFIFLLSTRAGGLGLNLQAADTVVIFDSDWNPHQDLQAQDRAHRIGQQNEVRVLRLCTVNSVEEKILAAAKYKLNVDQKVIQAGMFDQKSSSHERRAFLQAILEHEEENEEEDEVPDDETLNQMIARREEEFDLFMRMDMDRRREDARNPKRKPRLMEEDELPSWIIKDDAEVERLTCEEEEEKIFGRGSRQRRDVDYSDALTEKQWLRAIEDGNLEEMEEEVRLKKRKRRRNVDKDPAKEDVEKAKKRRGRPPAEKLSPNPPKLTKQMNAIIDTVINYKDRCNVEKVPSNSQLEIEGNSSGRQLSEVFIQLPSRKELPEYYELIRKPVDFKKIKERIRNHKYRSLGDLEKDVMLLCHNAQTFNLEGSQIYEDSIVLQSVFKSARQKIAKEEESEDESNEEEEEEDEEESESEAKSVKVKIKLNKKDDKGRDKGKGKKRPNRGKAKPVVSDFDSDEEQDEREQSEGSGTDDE", "assay": "SMARCA2/4 half-life (cycloheximide) and re-synthesis after compound 6 and VHL binder in HCT116 and RKO", "type": "cell-based", "settings": "for K (one phase exponential decay) / Tau (one phase exponential decay): CHX", "protocol": "(§1) 130,000–200,000 cells were seeded in 24-well plates and incubated until settled down or overnight. Compounds were dissolved in DMSO and added to cells in indicated concentrations using a digital dispenser following an optional media change. […] For SMARCA2/4 half-life determination, 150,000 or 200,000 cells were seeded in 24-well plates. […] For SMARCA2/4 re-synthesis measurements, 200,000 cells were seeded in 24-well plates. The next day, 100 nM compound 6 was added for 4 h to degrade SMARCA2/4, and a sample was taken as baseline for normalisation. […] Medium was removed, cells were washed with PBS and lysed with 80 µl Lysis Buffer (MSD Tris Lysis Buffer (#R60TX-2) + Halt Inhibitor Cocktail (100x) + Benzonase 0.5 µL/ml). Samples were frozen at −80 °C and thawed at room temperature before use. Samples were transferred to a V-bottom plate and insoluble debris was pelleted by centrifugation for 5 min at maximum speed. The supernatant was transferred to a fresh plate. Master Mix and Ladder were prepared according to manufacturer’s instructions for 12–230 kDa Wes Separation Module, 8 × 25 capillary cartridges, Protein Simple #SM-W004 with Anti-Rabbit Detection Module for Wes, Peggy Sue or Sally Sue, Protein Simple #DM-001. 4.8 µl lysate were mixed with 1.2 µl Master Mix to achieve a protein concentration of ~0.5 µg/µl. Antibodies were diluted in Antibody Diluent II (SMARCA2 Sigma #HPA029981 RRID:AB_10602406 1:25–100, SMARCA4 Cell Signalling #49360 clone D1Q7F RRID:AB_2728743 1:15–120 or Abcam #ab110641 clone EPNCIR111A RRID:AB_10861578 1:60, GAPDH Abcam #ab9485 RRID:AB_307275 1:250). Wes plates were prepared and run according to manufacturer’s instructions. Proteins were quantified with accompanying Compass Software. SMARCA2/4 protein levels were normalised to GAPDH. […] Where applicable, curves were fitted using a 4-parametric logistic model."}, "[2]": {"target": "T2, SMARCA2/4 (Homo sapiens, UniProt P51532)", "T2 construct": "endogenous in cells; host or cells: HCT116, RKO", "T2 sequence (P51532 whole entry)": "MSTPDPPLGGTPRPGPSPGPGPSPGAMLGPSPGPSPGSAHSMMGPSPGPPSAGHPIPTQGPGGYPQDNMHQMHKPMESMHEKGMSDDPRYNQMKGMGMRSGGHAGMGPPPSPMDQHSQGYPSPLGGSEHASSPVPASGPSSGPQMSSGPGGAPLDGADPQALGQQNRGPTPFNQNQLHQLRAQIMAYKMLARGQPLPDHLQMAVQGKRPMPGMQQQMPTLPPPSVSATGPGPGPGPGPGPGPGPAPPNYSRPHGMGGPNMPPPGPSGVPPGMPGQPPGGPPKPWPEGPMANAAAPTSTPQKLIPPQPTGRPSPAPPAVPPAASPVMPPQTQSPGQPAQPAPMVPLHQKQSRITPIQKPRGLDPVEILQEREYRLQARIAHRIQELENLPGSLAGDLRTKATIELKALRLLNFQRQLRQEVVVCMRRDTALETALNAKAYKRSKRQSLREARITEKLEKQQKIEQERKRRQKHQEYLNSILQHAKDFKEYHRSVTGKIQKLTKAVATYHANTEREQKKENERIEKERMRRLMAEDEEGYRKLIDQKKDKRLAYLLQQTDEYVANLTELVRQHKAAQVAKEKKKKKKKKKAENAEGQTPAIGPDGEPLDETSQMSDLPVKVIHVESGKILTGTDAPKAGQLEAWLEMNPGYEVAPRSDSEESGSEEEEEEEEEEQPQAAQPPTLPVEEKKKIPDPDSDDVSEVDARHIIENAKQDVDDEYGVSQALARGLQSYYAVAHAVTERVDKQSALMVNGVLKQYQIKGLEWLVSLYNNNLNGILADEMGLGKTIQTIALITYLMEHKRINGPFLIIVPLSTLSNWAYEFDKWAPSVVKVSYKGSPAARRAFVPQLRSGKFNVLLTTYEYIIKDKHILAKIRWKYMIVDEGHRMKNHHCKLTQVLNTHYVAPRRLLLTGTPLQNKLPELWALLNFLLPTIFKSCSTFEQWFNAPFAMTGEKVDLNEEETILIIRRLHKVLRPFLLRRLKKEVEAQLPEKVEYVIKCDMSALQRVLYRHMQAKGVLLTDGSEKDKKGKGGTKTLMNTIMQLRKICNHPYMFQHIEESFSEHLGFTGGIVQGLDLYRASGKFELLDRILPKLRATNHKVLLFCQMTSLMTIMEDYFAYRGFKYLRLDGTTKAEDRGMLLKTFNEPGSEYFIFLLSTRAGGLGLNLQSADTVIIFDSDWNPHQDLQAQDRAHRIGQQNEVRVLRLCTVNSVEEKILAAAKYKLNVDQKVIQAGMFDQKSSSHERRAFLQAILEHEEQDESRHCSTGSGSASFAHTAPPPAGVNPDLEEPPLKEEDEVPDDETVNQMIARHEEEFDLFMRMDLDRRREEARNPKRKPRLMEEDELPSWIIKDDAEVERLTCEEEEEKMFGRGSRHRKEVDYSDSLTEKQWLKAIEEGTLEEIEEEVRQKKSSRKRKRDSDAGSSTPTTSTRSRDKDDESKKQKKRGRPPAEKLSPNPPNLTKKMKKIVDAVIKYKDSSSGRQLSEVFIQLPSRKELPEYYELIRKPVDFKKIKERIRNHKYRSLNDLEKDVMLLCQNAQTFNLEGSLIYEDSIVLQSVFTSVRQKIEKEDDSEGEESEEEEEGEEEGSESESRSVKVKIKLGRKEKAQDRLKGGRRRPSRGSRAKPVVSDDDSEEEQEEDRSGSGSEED", "assay": "SMARCA2/4 half-life (cycloheximide) and re-synthesis after compound 6 and VHL binder in HCT116 and RKO", "type": "cell-based", "settings": "for K (one phase exponential decay) / Tau (one phase exponential decay): CHX", "protocol": "as §1"}}, "note": "“And” between values parts separate entries of the source, which are not always exact repeats. Equal values may be shown once.", "data": [{"compound": "C[C@@H]1C[C@@H]([C@H](O)CC2CC(=O)NC(=O)C2)C(=O)[C@@H](C)C1", "note": "[CHX]", "values": [{"measurement": "K (one phase exponential decay)", "setting": "[1]; HCT116, SM2", "result": 0.01756}, {"measurement": "Tau (one phase exponential decay)", "setting": "[1]; HCT116, SM2", "result": 56.94, "unit": "h"}, {"measurement": "fraction protein remaining", "setting": "[1]; HCT116, SM2, Time CHX 1 h", "result": "0.9134 and 0.9119 and 0.8363"}, {"measurement": "fraction protein remaining", "setting": "[1]; HCT116, SM2, Time CHX 2 h", "result": "1.19 and 0.984 and 1.003"}, {"measurement": "fraction protein remaining", "setting": "[1]; HCT116, SM2, Time CHX 6 h", "result": "1.2436 and 0.9973 and 0.8745"}, {"measurement": "fraction protein remaining", "setting": "[1]; HCT116, SM2, Time CHX 18 h", "result": "0.8497 and 0.6816 and 0.6174"}, {"measurement": "fraction protein remaining", "setting": "[1]; HCT116, SM2, Time CHX 20 h", "result": "0.8836 and 0.7383 and 0.515"}, {"measurement": "K (one phase exponential decay)", "setting": "[1]; RKO, SM2", "result": 0.03021}, {"measurement": "Tau (one phase exponential decay)", "setting": "[1]; RKO, SM2", "result": 33.1, "unit": "h"}, {"measurement": "fraction protein remaining", "setting": "[1]; RKO, SM2, Time CHX 1 h", "result": "0.6694 and 0.8157 and 0.6659"}, {"measurement": "fraction protein remaining", "setting": "[1]; RKO, SM2, Time CHX 2 h", "result": "0.8737 and 0.9723 and 0.8342"}, {"measurement": "fraction protein remaining", "setting": "[1]; RKO, SM2, Time CHX 6 h", "result": "0.9472 and 0.9944 and 0.8492"}, {"measurement": "fraction protein remaining", "setting": "[1]; RKO, SM2, Time CHX 18 h", "result": "0.7207 and 0.4914 and 0.6074"}, {"measurement": "fraction protein remaining", "setting": "[1]; RKO, SM2, Time CHX 20 h", "result": "0.6704 and 0.4369 and 0.5438"}, {"measurement": "K (one phase exponential decay)", "setting": "[2]; HCT116, SM4", "result": 0.01934}, {"measurement": "Tau (one phase exponential decay)", "setting": "[2]; HCT116, SM4", "result": 51.7, "unit": "h"}, {"measurement": "fraction protein remaining", "setting": "[2]; HCT116, SM4, Time CHX 1 h", "result": "0.9048 and 0.6354 and 0.681"}, {"measurement": "fraction protein remaining", "setting": "[2]; HCT116, SM4, Time CHX 2 h", "result": "1.063 and 0.7806 and 0.7981"}, {"measurement": "fraction protein remaining", "setting": "[2]; HCT116, SM4, Time CHX 6 h", "result": "0.982 and 0.7891 and 0.769"}, {"measurement": "fraction protein remaining", "setting": "[2]; HCT116, SM4, Time CHX 18 h", "result": "0.6017 and 0.6088 and 0.5084"}, {"measurement": "fraction protein remaining", "setting": "[2]; HCT116, SM4, Time CHX 20 h", "result": "0.6375 and 0.6135 and 0.453"}, {"measurement": "fraction protein remaining", "setting": "[2]; HCT116, SM4, Time CHX 24 h", "result": "0.6439 and 0.582 and 0.7075"}, {"measurement": "K (one phase exponential decay)", "setting": "[2]; RKO, SM4", "result": 0.05848}, {"measurement": "Tau (one phase exponential decay)", "setting": "[2]; RKO, SM4", "result": 17.1, "unit": "h"}, {"measurement": "fraction protein remaining", "setting": "[2]; RKO, SM4, Time CHX 1 h", "result": "0.6419 and 0.7642 and 0.7888"}, {"measurement": "fraction protein remaining", "setting": "[2]; RKO, SM4, Time CHX 2 h", "result": "0.6538 and 0.6196 and 0.6177"}, {"measurement": "fraction protein remaining", "setting": "[2]; RKO, SM4, Time CHX 6 h", "result": "0.4106 and 0.4086 and 0.4599"}, {"measurement": "fraction protein remaining", "setting": "[2]; RKO, SM4, Time CHX 18 h", "result": "0.3137 and 0.4693 and 0.3349"}, {"measurement": "fraction protein remaining", "setting": "[2]; RKO, SM4, Time CHX 20 h", "result": "0.3111 and 0.4007 and 0.3018"}, {"measurement": "fraction protein remaining", "setting": "[2]; RKO, SM4, Time CHX 24 h", "result": "0.1564 and 0.2093 and 0.1216"}]}]}
